Source: ChEMBL document CHEMBL1201862, “PubChem BioAssay data set” (2004)
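Dose response: 5 concentrations. Exposure: 48 h. Format: 96-well plates. Endpoint: linear interpolation; highest concentration if not reached. Abbreviation: GI50, concentration required for 50% inhibition of growth.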 Activity calls are given as the source filed them. No stated cut-off is given here; in the data, active = GI50 up to about 1.1 µM and inactive = higher.

Legend:
Assay in all cases: NCI tumour cell line growth inhibition, 48 h
[1] = test system: K562
[2] = test system: RPMI-8226
[3] = test system: OVCAR-5
[4] = test system: SN12C
[5] = test system: NCI-H23
[6] = test system: 786-0
[7] = test system: LXFL 529
[8] = test system: EKVX
[9] = test system: KM-20L2
[10] = test system: TK-10
[11] = test system: DLD-1
[12] = test system: NCI-H226
[13] = test system: UACC-62
[14] = test system: U-251
[15] = test system: RXF 631
[16] = test system: OVCAR-3
[17] = test system: SK-OV-3
[18] = test system: NCI-H460
[19] = test system: LOX IMVI
[20] = test system: HOP-18
[21] = test system: DMS-273
[22] = test system: Malme-3M
[23] = test system: ACHN
[24] = test system: M14
[25] = test system: MOLT-4
[26] = test system: A549
[27] = test system: UO-31
[28] = test system: SF-295
[29] = test system: UACC-257
[30] = test system: HCC 2998
[31] = test system: SK-MEL-5
[32] = test system: XF498
[33] = test system: SF-539
[34] = test system: SNB-19
[35] = test system: SW-620
[36] = test system: NCI-H522
[37] = test system: SNB-75
[38] = test system: SK-MEL-2
[39] = test system: SF-268
[40] = test system: HOP-62
[41] = test system: HT-29
[42] = test system: CCRF-CEM
[43] = test system: RXF 393
[44] = test system: OVCAR-4
[45] = test system: OVCAR-8
[46] = test system: KM12
[47] = test system: SK-MEL-28
[48] = test system: HCT-116
[49] = test system: M19-MEL
[50] = test system: IGROV-1
[51] = test system: COLO 205
[52] = test system: CAKI-1
[53] = test system: SNB-78
[54] = test system: HCT-15
[55] = test system: DMS-114
[56] = test system: A498
[57] = test system: HL-60

SMILES: O=c1[nH]c2c3ccccc3ccc2c2cc3c(cc12)OCO3
- GI50 [1]: 38.5 µM (inactive)
- GI50 [2]: 72.8 µM (inactive)
- GI50 [3]: > 100 µM (inactive)
- GI50 [4]: > 100 µM (inactive)
- GI50 [5]: > 100 µM (inactive)
- GI50 [6]: > 100 µM (inactive)
- GI50 [7]: 79.4 µM (inactive)
- GI50 [8]: 49.2 µM (inactive)
- GI50 [9]: > 100 µM (inactive)
- GI50 [10]: > 100 µM (inactive)
- GI50 [11]: > 100 µM (inactive)
- GI50 [12]: > 100 µM (inactive)
- GI50 [13]: > 100 µM (inactive)
- GI50 [14]: > 100 µM (inactive)
- GI50 [15]: > 100 µM (inactive)
- GI50 [16]: > 100 µM (inactive)
- GI50 [17]: > 100 µM (inactive)
- GI50 [18]: > 100 µM (inactive)
- GI50 [19]: > 100 µM (inactive)
- GI50 [20]: 2 µM (inactive)
- GI50 [21]: 67.1 µM (inactive)
- GI50 [22]: > 100 µM (inactive)
- GI50 [23]: 69.3 µM (inactive)
- GI50 [24]: > 100 µM (inactive)
- GI50 [25]: 40 µM (inactive)
- GI50 [26]: 75.9 µM (inactive)
- GI50 [27]: 39.4 µM (inactive)
- GI50 [28]: > 100 µM (inactive)
- GI50 [29]: > 100 µM (inactive)
- GI50 [30]: > 100 µM (inactive)
- GI50 [31]: 43.5 µM (inactive)
- GI50 [32]: 84.1 µM (inactive)
- GI50 [33]: > 100 µM (inactive)
- GI50 [34]: > 100 µM (inactive)
- GI50 [35]: 84.7 µM (inactive)
- GI50 [36]: 42.5 µM (inactive)
- GI50 [37]: 31.4 µM (inactive)
- GI50 [38]: > 100 µM (inactive)
- GI50 [39]: 98.6 µM (inactive)
- GI50 [40]: 89.1 µM (inactive)
- GI50 [41]: > 100 µM (inactive)
- GI50 [42]: 69.8 µM (inactive)
- GI50 [43]: 28.8 µM (inactive)
- GI50 [44]: > 100 µM (inactive)
- GI50 [45]: > 100 µM (inactive)
- GI50 [46]: 75.5 µM (inactive)
- GI50 [47]: > 100 µM (inactive)
- GI50 [48]: 83.2 µM (inactive)
- GI50 [49]: > 100 µM (inactive)
- GI50 [50]: > 100 µM (inactive)
- GI50 [51]: > 100 µM (inactive)
- GI50 [52]: 95.9 µM (inactive)
- GI50 [53]: > 100 µM (inactive)
- GI50 [54]: 71.6 µM

SMILES: Cc1ccc(SSCCCS(=O)O)cc1
- GI50 [1]: 0.766 µM (active)
- GI50 [3]: 74.6 µM (inactive)
- GI50 [4]: 21.6 µM (inactive)
- GI50 [5]: 39 µM (inactive)
- GI50 [6]: 40.4 µM (inactive)
- GI50 [7]: 27.7 µM (inactive)
- GI50 [8]: 33.1 µM (inactive)
- GI50 [9]: 31.7 µM (inactive)
- GI50 [10]: 39.5 µM (inactive)
- GI50 [11]: 45.8 µM (inactive)
- GI50 [13]: 27.2 µM (inactive)
- GI50 [55]: 15.9 µM (inactive)
- GI50 [14]: 17.4 µM (inactive)
- GI50 [15]: 20.4 µM (inactive)
- GI50 [16]: 47 µM (inactive)
- GI50 [56]: 28.1 µM (inactive)
- GI50 [17]: 49.2 µM (inactive)
- GI50 [18]: 63.1 µM (inactive)
- GI50 [19]: 11.4 µM (inactive)
- GI50 [20]: > 100 µM (inactive)
- GI50 [21]: 24.5 µM (inactive)
- GI50 [22]: > 100 µM (inactive)
- GI50 [23]: 37.4 µM (inactive)
- GI50 [24]: 38.6 µM (inactive)
- GI50 [25]: 15.2 µM (inactive)
- GI50 [26]: 31.9 µM (inactive)
- GI50 [27]: 23.5 µM (inactive)
- GI50 [28]: 32.8 µM (inactive)
- GI50 [29]: 50.2 µM (inactive)
- GI50 [30]: 60 µM (inactive)
- GI50 [31]: 30.1 µM (inactive)
- GI50 [32]: > 100 µM (inactive)
- GI50 [33]: 20.7 µM (inactive)
- GI50 [34]: 49.7 µM (inactive)
- GI50 [35]: 34.2 µM (inactive)
- GI50 [36]: 18.1 µM (inactive)
- GI50 [37]: 21.8 µM (inactive)
- GI50 [38]: 37.1 µM (inactive)
- GI50 [39]: 12.2 µM (inactive)
- GI50 [40]: 29.2 µM (inactive)
- GI50 [41]: 41.6 µM (inactive)
- GI50 [43]: 18.8 µM (inactive)
- GI50 [44]: 43.8 µM (inactive)
- GI50 [45]: 21.6 µM (inactive)
- GI50 [46]: 28.8 µM (inactive)
- GI50 [47]: 45.7 µM (inactive)
- GI50 [48]: 30.1 µM (inactive)
- GI50 [57]: 0.435 µM (active)
- GI50 [49]: 31.8 µM (inactive)
- GI50 [50]: 7.93 µM (inactive)
- GI50 [51]: 24 µM (inactive)
- GI50 [52]: 38.7 µM (inactive)
- GI50 [54]: 29.2 µM
